Experimental data as given in ChEMBL document CHEMBL5143509, “An efficient strategy for digging protein-protein interactions for rational drug design - A case study with HIF-1α/VHL” (Eur J Med Chem, 2022).
Calls of active or inactive are those of the source. The calls are words filed in the database; no cut-off is given here.

Tests used:
[1] = biological target: Hypoxia-inducible factor 1-alpha (Homo sapiens) (UniProt Q16665); test: Stabilization of HIF-1 alpha in human HeLa cells at 100 uM incubated for 24 hrs by Western blot analysis; format: cell-based
Chain of Hypoxia-inducible factor 1-alpha (Homo sapiens) (Q16665 whole entry, looked up): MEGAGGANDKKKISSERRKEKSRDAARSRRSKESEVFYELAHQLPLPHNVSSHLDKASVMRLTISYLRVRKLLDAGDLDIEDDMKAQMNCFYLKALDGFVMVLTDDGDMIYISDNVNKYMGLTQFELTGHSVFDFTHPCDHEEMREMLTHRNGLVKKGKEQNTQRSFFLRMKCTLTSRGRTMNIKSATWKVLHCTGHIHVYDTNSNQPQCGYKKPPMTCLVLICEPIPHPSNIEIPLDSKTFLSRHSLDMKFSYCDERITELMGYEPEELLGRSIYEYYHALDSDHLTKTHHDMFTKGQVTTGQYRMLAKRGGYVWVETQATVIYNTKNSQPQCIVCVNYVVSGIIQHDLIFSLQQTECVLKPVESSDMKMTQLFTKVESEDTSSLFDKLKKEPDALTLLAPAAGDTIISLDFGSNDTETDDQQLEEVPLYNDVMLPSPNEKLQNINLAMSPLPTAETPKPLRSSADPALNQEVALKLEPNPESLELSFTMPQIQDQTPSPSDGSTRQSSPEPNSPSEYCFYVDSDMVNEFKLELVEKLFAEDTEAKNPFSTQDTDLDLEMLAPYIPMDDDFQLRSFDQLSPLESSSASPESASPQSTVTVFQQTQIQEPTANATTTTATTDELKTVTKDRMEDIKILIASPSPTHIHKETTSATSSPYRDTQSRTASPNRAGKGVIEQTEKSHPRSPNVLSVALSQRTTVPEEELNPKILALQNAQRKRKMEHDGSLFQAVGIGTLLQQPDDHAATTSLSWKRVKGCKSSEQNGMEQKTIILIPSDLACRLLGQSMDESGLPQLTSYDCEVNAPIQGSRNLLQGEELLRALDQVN

HeLa [2] = test: Stabilization of HIF-1 alpha OH in human HeLa cells at 100 uM incubated for 24 hrs by Western blot analysis; format: cell-based
HeLa [3] = test: Cytotoxicity against human HeLa cells assessed as effect on cell viability at 100 uM measured after 24 hrs by crystal violet staining based assay; format: toxicity
[4] = Octanol/water partition coefficient, logD of the compound at pH 7.4; format: physicochemical
U2OS [5] = test: Cytotoxicity against human U2OS cells assessed as effect on cell viability at 100 uM measured after 24 hrs by MTT assay; format: toxicity, cell-based
[6] = Binding affinity to VBC (unknown origin) using FAM-DEALA-Hyp-YIPD as substrate by fluorescence polarization assay; parameters: species or system Homo sapiens
[7] = Octanol-water partition coefficient, logP of the compound; format: physicochemical
786-0 = test: Cytotoxicity against human 786-0 cells assessed as effect on cell viability at 100 uM measured after 24 hrs by MTT assay; format: toxicity, cell-based; details: 786-0, 24 h
HeLa [8] = test: Upregulation of HIF-1 alpha in human HeLa cells at 100 uM incubated for 24 hrs by Western blot analysis; format: functional, cell-based
U2OS [9] = test: Upregulation of HIF-1 alpha in human U2OS cells at 100 uM incubated for 24 hrs by Western blot analysis; format: functional, cell-based

With CCCC[C@H](NC(=O)[C@@H]1C[C@@H](O)CN1C(=O)[C@@H](NC(C)=O)C(C)(C)C)c1ccc(-c2scnc2C)cc1 the Activity [1] was 1.4 fold, the Activity (HeLa [2]) was 1.4 fold and the Activity (HeLa [3]) was “Non-Toxic”. The logD ([4]; read-out: logD) was 2.75, the Activity (U2OS [5]) was “Non-Toxic” and the IC50 [6] was 350 nM. For the same molecule, the logP ([7]; read-out: logP) was 2.75 and the Activity (786-0) was “Non-Toxic”.
For O=C(O)CNC(=O)c1c(O)c2ccccc2n(Cc2ccccc2)c1=O, the Activity (HeLa [8]) was “Active” and the Activity (U2OS [9]) was “Active”.
For CC(=O)N[C@H](C(=O)N1C[C@H](O)C[C@H]1C(=O)N[C@@H](CCC(=O)O)c1ccc(-c2scnc2C)cc1)C(C)(C)C, the Activity [1] was 1.91 fold, the Activity (HeLa [2]) was 0.99 fold and the Activity (HeLa [3]) was “Non-Toxic”. For the same molecule, the logD ([4]; read-out: logD) was -0.44, the Activity (U2OS [5]) was “Non-Toxic” and the IC50 [6] was 63 nM. For the same molecule, the logP ([7]; read-out: logP) was 1.02, the Activity (U2OS [9]) was “Active” and the Activity (786-0) was “Non-Toxic”.
In the case of CCOC(=O)CC[C@H](NC(=O)[C@@H]1C[C@@H](O)CN1C(=O)[C@@H](NC(C)=O)C(C)(C)C)c1ccc(-c2scnc2C)cc1, the Activity [1] is reported as 1.64 fold, the Activity (HeLa [2]) is reported as 1.31 fold and the Activity (HeLa [3]) is reported as “Non-Toxic”. The logD ([4]; read-out: logD) was 1.59, the Activity (U2OS [5]) was “Non-Toxic” and the IC50 [6] was 81 nM. For the same molecule, the logP ([7]; read-out: logP) was 1.59, the Activity (U2OS [9]) was “Active” and the Activity (786-0) was “Non-Toxic”.
With CC(=O)N[C@H](C(=O)N1C[C@H](O)C[C@H]1C(=O)N[C@@H](CCc1ccncc1)c1ccc(-c2scnc2C)cc1)C(C)(C)C the Activity [1] was 0.99 fold, the Activity (HeLa [2]) was 2.25 fold and the Activity (HeLa [3]) was “Non-Toxic”. The logD [4] was 2.7, the Activity (U2OS [5]) was “Non-Toxic” and the IC50 [6] was 223 nM. The logP [7] was 2.18 and the Activity (786-0) was “Non-Toxic”.
With CC(=O)N[C@H](C(=O)N1C[C@H](O)C[C@H]1C(=O)N[C@@H](c1ccccc1)c1ccc(-c2scnc2C)cc1)C(C)(C)C the Activity [1] was 2.21 fold, the Activity (HeLa [2]) was 1.01 fold and the Activity (HeLa [3]) was “Non-Toxic”. For the same molecule, the logD ([4]; read-out: logD) was 2.55, the IC50 [6] was 230 nM and the logP ([7]; read-out: logP) was 2.55. The Activity (786-0) was “Non-Toxic”.
For CC(=O)N[C@H](C(=O)N1C[C@H](O)C[C@H]1C(=O)NCc1ccc(-c2scnc2C)cc1)C(C)(C)C, the Activity [1] was 1 fold, the Activity (HeLa [2]) was 1 fold and the Activity (HeLa [3]) was “Non-Toxic”. For the same molecule, the logD ([4]; read-out: logD) was 0.94, the IC50 [6] was 204 nM and the logP ([7]; read-out: logP) was 0.94.
For CC(=O)N[C@H](C(=O)N1C[C@H](O)C[C@H]1C(=O)N[C@@H](CCc1ccc(Br)cc1)c1ccc(-c2scnc2C)cc1)C(C)(C)C, the Activity [1] was 1.88 fold, the Activity (HeLa [2]) was 0.91 fold and the Activity (HeLa [3]) was “Non-Toxic”. The logD ([4]; read-out: logD) was 4.08, the IC50 [6] was 189 nM and the logP ([7]; read-out: logP) was 4.08. The Activity (U2OS [9]) was “Active” and the Activity (786-0) was “Non-Toxic”.
In the case of CC(=O)N[C@H](C(=O)N1C[C@H](O)C[C@H]1C(=O)N[C@@H](CCC(C)(C)C)c1ccc(-c2scnc2C)cc1)C(C)(C)C, the Activity [1] is reported as 2.22 fold, the Activity (HeLa [2]) is reported as 1.21 fold and the Activity (HeLa [3]) is reported as “Non-Toxic”. It also gave a logD ([4]; read-out: logD) of 3.21, an IC50 [6] of 166 nM and a logP ([7]; read-out: logP) of 3.21. The Activity (786-0) was “Non-Toxic”.
In the case of CC(=O)N[C@H](C(=O)N1C[C@H](O)C[C@H]1C(=O)N[C@@H](CCc1ccc(O)cc1)c1ccc(-c2scnc2C)cc1)C(C)(C)C, the Activity [1] is reported as 1.79 fold, the Activity (HeLa [2]) is reported as 0.75 fold and the Activity (HeLa [3]) is reported as “Non-Toxic”. The logD ([4]; read-out: logD) was 3.08, the IC50 [6] was 193 nM and the logP ([7]; read-out: logP) was 3.08. The Activity (U2OS [9]) was “Active” and the Activity (786-0) was “Non-Toxic”.
